# Patent publication EP4635958A1, “PYRIMIDINE-CONTAINING POLYCYCLIC DERIVATIVE INHIBITOR, AND PREPARATION METHOD THEREFOR AND USE THEREOF” (Shanghai Hansoh Biomedical Co., Ltd., priority 2022, dated 2024)
# Counter-ions that a name gives are not always drawn. Like-named read-outs stand apart in the source and are kept apart here.
# Tests used:
# p-ERK in AGS cells = assay: Inhibition of p-ERK in AGS cells (LANCE Ultra phospho-ERK1/2 kit); type: cell-based; conditions: read-out: AGS_pERK IC50
# Method: 1. Experimental objective: The inhibition activity of the example compounds on the phosphorylated ERK level in KRAS G12D mutant cells AGS was determined. 2. Experimental instruments: • 2.1 Instruments: Envison; Pipette (Eppendorf & Rainin) • 2.2 Reagents: AGS cells were purchased from COBIOER BIOSCIENCES CO., LTD, with a catalog number of CBP60476; Phosphorylated ERK1/2 (T202-Y204) LANCE Ultra Cellular Detection Kit was purchased from PerkinElmer, with a catalog number of TRF4000M; RPMI 1640 was purchased from Gibco, with a catalog number of 22400071; FBS was purchased from Gibco, with a catalog number of 10091148; PBS was purchased from Gibco, with a catalog number of 10010023; trypsin was purchased from Gibco, with a catalog number of 25200056; cell culture plates were purchased from Corning Company, with a catalog number of 3610; White opaque OptiPlate™-384 plates were purchased from PerkinElmer, with a catalog number of 6007290. 3. Experimental method: When AGS cells were cultured to appropriate confluence, the AGS cells were collected, and the cell density was adjusted to 4 × 10^5/mL using complete culture medium. The cell suspension was plated onto a 96-well plate at 100 µL per well, and the plate was placed in the incubator at 37°C and 5% CO2 for adherent culture overnight. Solutions of the compound with different concentrations were formulated using DMSO and complete culture medium, and a vehicle control was set up. The solutions of the compound were added to the 96-well plate at 25 µL per well, and the plate was placed in the incubator at 37°C and 5% CO2 for further culture for 2 h. Then, the supernatant of the cell culture plate was discarded, 50 µL of lysis buffer was added to each well, the cells were lysed at room temperature under shaking for 30 min, then placed in a centrifuge and centrifuged at 1000 rpm for 1 min. 15 µL of supernatant was transferred to a 384-well plate, 5 µL of detection mixture was added to each well (Eu-labeled anti-ERK1/2 (T202-Y204) Antibody at a final detection concentration of 0.5 nM and ULight labeled anti-ERK1/2 Antibody at a final detection concentration of 5 nM), centrifuged at 1000 rpm for 1 min, mixed evenly, and reacted at room temperature overnight. The plate was read using Envison and the signal values at the emission wavelengths of 620 nm and 665 nm were detected using a time-resolved fluorescence program. 4. […] Graphpad Prism software was used to fit the concentration and inhibition rate to a nonlinear regression curve, so as to obtain the IC50 value. Table 5: Inhibition activity of the compounds on p-ERK in AGS cells
# [1] = tested on: human pancreatic cancer cell line (HPAC); assay: Antitumor efficacy in mouse transplanted tumor model of human pancreatic cancer cell line (HPAC); type: in vivo, mice (BALB/c nude); conditions: Table 12, HPAC xenograft, 100mpk, PO*BID; for Tumor volume (mm^3, Mean ± SD) Day 0: Day 0 (baseline)
# Excerpt: 8-10 week old female conventional immunodeficient mice (BALB/c nude) with a body weight of 18 g-22 g were used as experimental animals, and a transplanted tumor model of human pancreatic cancer cell line (HPAC) was used to conduct in vivo efficacy experiments to test the anti-tumor results of the example compounds after gavage administration.
# The example compounds of the present invention, made in house.
# A certain amount of the example compound was weighed, and an appropriate amount of 10% vehicle (Solutol HS15) was added. The mixture was stirred on a magnetic stirrer for 0.5 h to formulate a homogeneous suspension at the desired concentration.
# Human pancreatic cancer cell line (HPAC) was derived from COBIOER BIOSCIENCES CO., LTD, cultured on DMEM/F12 medium (Gibco, 11330-032) supplemented with 10% fetal calf serum (Gibco, 10091-148), 1×Insulin (51500-056, Gibco) and 10 ng/ml of EGF (PHG0311, Gibco) and observed under a microscope (Thermo Fisher, 311). The cells were routinely passaged when the cells reached 80%-90% confluence in the culture flask. The passaged cells were cultured in a 37°C, 5% CO2 incubator (Thermo Fisher, 311).
# Under aseptic conditions, human pancreatic cancer cells (HPAC) in the logarithmic growth phase were harvested using 0.25% trypsin-EDTA (Gibco, 25200-056), washed and resuspended with phosphate buffer. The cell suspension was mixed with Matrigel (Corning, 356234) at a 1 : 1 ratio (v/v) and implanted subcutaneously into the right anterior dorsal region of immunodeficient mice (BALB/c nude). Each mouse was inoculated with 3*10^6 cells in a volume of 100 microliters (µL). After inoculation, when the tumor volume reached 100-200 mm^3, the mice would be evenly randomized into 5 groups based on the tumor size, with 5 mice per group, for in vivo efficacy experiments. The negative control group was the vehicle group.
# Mode of administration: The example compounds were administered orally.
# Twice a week, the long and short diameters of the tumor were measured using a vernier caliper, and the tumor volume (mm^3) was calculated using the formula: V = 0.5*D*d*d, where D and d are the long and short diameters of the tumor, respectively. The anti-tumor efficacy was determined by dividing the average increase in tumor volume of compound-treated animals by the average increase in tumor volume of untreated animals. The calculation formula for tumor inhibition rate was: When there is no tumor regression, TGI(%) = 100-[(Vt-V0) administration group/(Vt-V0) vehicle control group]*100%. When tumor regression occurs, TGI(%) = [1-(Vt-V0) administration group/V0 vehicle control group]*100%. All animals were euthanized after the experiment.
# GP2D = assay: Inhibition of proliferation of KRAS G12D mutant tumor cell line GP2D (CellTiter-Glo); conditions: read-out: GP2D IC50
# Method: Experimental method: When SNU-1, HPAF-II, Panc0403, AsPC-1 or GP2D cells were cultured to the appropriate confluence, and the SNU-1, HPAF-II, Panc0403, AsPC-1 or GP2D cells were collected. The cells were adjusted to the appropriate cell density using complete culture medium, the cell suspension was plated onto a 96-well plate at 90 µL per well, and the plate was placed in the incubator at 37°C and 5% CO2 for adherent culture overnight. Solutions of the compound with different concentrations were formulated using DMSO and culture medium. A vehicle control was set up. […] Then, CellTiter-Glo solution was added, and the obtained mixture was shaken and mixed evenly, incubated in the dark for 10 min, and read with a BioTek Synergy H1 microplate reader. […] Experimental data processing method: The luminescence signal value was used to calculate the inhibition rate. Graphpad Prism software was used to fit the concentration and inhibition rate to a nonlinear regression curve, so as to obtain the IC50 value.
# [2] = Pharmacokinetic determination in rats (IV and PO, plasma, LCMS/MS); type: in vivo, SD rats; conditions: male SD rats; for AUC(0-inf): read-out: AUCo-∞; for half-life: read-out: T1/2 (converted)
# Summary of the method: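 Male SD rats (3/group), fasted overnight, dosed PO at 30 mg/kg in 10% Captisol/50 mM citrate pH 5.0 or IV at 1 mg/kg in 5% DMSO/10% Solutol HS15/85% PBS. Jugular plasma (EDTA-2K) sampled predose to 24 h; analysed by LCMS/MS.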
# AsPC-1 = assay: Inhibition of proliferation of KRAS G12D mutant tumor cell line AsPC-1 (CellTiter-Glo); type: cell-based; conditions: Homo sapiens, ASPC1, about 72 h
# Method: 1. Experimental objective: The inhibition activity of the example compounds on the proliferation of 5 KRAS G12D mutant cell lines SNU-1, HPAF-II, Panc0403, AsPC-1 and GP2D was determined. 2. Experimental instruments: • 2.1 Instruments: Microplate reader (BioTek Synergy H1); Pipette (Eppendorf & Rainin). • 2.2 Reagents: HPAF-II, PANC0403, AsPC-1 and GP2D were purchased from COBIOER BIOSCIENCES CO., LTD; SNU-1 was purchased from the cell bank of Chinese Academy of Sciences, Cell Titer-Glo was purchased from Promega, with a catalog number of G7573; RPMI 1640 was purchased from Gibco, with a catalog number of 22400089; DMEM was purchased from Gibco, with a catalog number of 11995065; FBS was purchased from Gibco, with a catalog number of 10091148; PBS was purchased from Gibco, with a catalog number of 10010023; trypsin was purchased from Gibco, with a catalog number of 25200056; cell culture plates were purchased from Corning Company, with a catalog number of 3610. 3. Experimental method: When SNU-1, HPAF-II, Panc0403, AsPC-1 or GP2D cells were cultured to the appropriate confluence, and the SNU-1, HPAF-II, Panc0403, AsPC-1 or GP2D cells were collected. The cells were adjusted to the appropriate cell density using complete culture medium, the cell suspension was plated onto a 96-well plate at 90 µL per well, and the plate was placed in the incubator at 37°C and 5% CO2 for adherent culture overnight. Solutions of the compound with different concentrations were formulated using DMSO and culture medium. A vehicle control was set up. The solutions of the compound were added to the 96-well plate at 10 µL per well, and the plate was placed in the incubator at 37°C and 5% CO2 for further culture for about 72 h. Then, CellTiter-Glo solution was added, and the obtained mixture was shaken and mixed evenly, incubated in the dark for 10 min, and read with a BioTek Synergy H1 microplate reader. 4. Experimental data processing method: The luminescence signal value was used to calculate the inhibition rate. Graphpad Prism software was used to fit the concentration and inhibition rate to a nonlinear regression curve, so as to obtain the IC50 value. 5. Experimental results: Table 2: Determination of the inhibition activity of the compounds on the proliferation of KRAS G12D mutant tumor cell line GP2D
# [3] = rat, in vivo, IV, 1 mg/kg, overnight fasting, plasma
# [4] = rat, in vivo, PO, 30 mg/kg, overnight fasting, plasma
compound,measurement,setting,value
"3-chloro-5-((5S,5aS,6R,9S)-5-ethyl-1-fluoro-12-((1-((4-(fluoromethylene)piperidin-1-yl)methyl-d2)cyclopropyl)methoxy-d2)-5a,6,7,8,9,10-hexahydro-5H-4-oxa-3,10a,11,13,14-pentaaza-6,9-methylnaphtho[1,8-ab]hept-2-yl)-4-(trifluoromethyl)aniline [Example 330]",IC50,"p-ERK in AGS cells; AGS cells, 2 h with compound",3.8 nM
same,"Tumor volume (mm^3, Mean ± SD) Day 0",[1],468 mm^3
same,TGI(%) Day 14,[1],110.18%
same,ΔT/ΔC(%) Day 14,[1],43.78%
same,"Tumor volume (mm^3, Mean ± SD) Day 21",[1],418 mm^3
same,IC50,"GP2D; proliferation, about 72 h, CellTiter-Glo",0.17 nM
"C#Cc1c(F)ccc2cc(O)cc(-c3nc4c5c(nc(OCC6(CN7CCC(=CF)CC7)CC6)nc5c3F)N3C[C@H]5CC[C@H](N5)[C@H]3[C@H](CC)O4)c12 [Example 137, 4-((5S,5aS,6S,9R)-12-((1-((4-(fluoromethylene)piperidin-1-yl)methyl)cyclopropyl)methoxy)-5-ethyl-1-fluoro-5a,6,7,8,9,10-hexahydro-5H-4-oxa-3,10a,11,13,14-pentaaza-6,9-methylnaphtho[1,8-ab]hept-2-yl)-5-ethynyl-6-fluoronaphthalen-2-ol]",IC50,"p-ERK in AGS cells; Homo sapiens, AGS, 2 h",5.8 nM
same,F,[2]; PO 30 mg/kg vs IV 1 mg/kg,9.7%
same,AUC(0-inf),[2]; [3],793 ng·h/mL
same,C0,"[2]; rat, in vivo, IV, 1 mg/kg, overnight fasting, plasma, read-out: C0",1630 ng/mL
same,clearance,"[2]; rat, in vivo, IV, 1 mg/kg, overnight fasting, plasma, read-out: CL",21 mL/min/kg
same,half-life,[2]; [3],11.3 h
same,AUC(0-inf),[2]; [4],2110 ng·h/mL
same,Cmax,"[2]; rat, in vivo, PO, 30 mg/kg, overnight fasting, plasma, read-out: Cmax",271 ng/mL
same,half-life,[2]; [4],6.2 h
same,Tmax,"[2]; rat, in vivo, PO, 30 mg/kg, overnight fasting, plasma, read-out: Tmax",4 h
same,IC50,"GP2D; Homo sapiens, GP2d, 72 h",0.41 nM
"[2H]C([2H])([2H])[C@@H]1Oc2nc(-c3cc(O)cc4ccc(F)c(C#C)c34)c(F)c3nc(OCC4(CN5CCC(=NOC)CC5)CC4)nc(c23)N2C[C@H]3CC[C@H](N3)[C@@H]12 [Example 338, 1-((1-((((5S,5aS,6S,9R)-2-(8-ethynyl-7-fluoro-3-hydroxynaphthalen-1-yl)-1-fluoro-5-deuteratedmethyl-5a,6,7,8,9,10-hexahydro-5H-4-oxa-3,10a,11,13, 14-pentaaza-6,9-methylenenaphtho[1,8-ab]heptalen-12-yl)oxo)methyl)cyclopropyl)methyl)piperidin-4-one O-methyloxime formate]",IC50,"p-ERK in AGS cells; Homo sapiens, AGS cells, 2 h with compound",2.8 nM
same,IC50,"GP2D; Homo sapiens, GP2d, 72 h",0.34 nM
"[2H]C([2H])([2H])[C@@H]1Oc2nc(-c3cc(N)cc(Cl)c3C(F)(F)F)c(F)c3nc(OC([2H])([2H])C4(C([2H])([2H])N5CCC(=NOC)CC5)CC4)nc(c23)N2C[C@H]3CC[C@H](N3)[C@@H]12 [Example 341, 1-((1-((((5S,5aS,6S,9R)-2-(5-amino-3-chloro-2-(trifluoromethyl)phenyl)-1-fluoro-5-(methyl-d3)-5a,6,7,8,9,10-hexahydro-5H-4-oxa-3,10a,11,13,14-pentaaza-6,9-methylnaphtho[1,8-ab]heptene-12-yl)oxy)methyl-d2)cyclopropyl)methyl-d2)piperidin-4-one O-methyloxime]",IC50,AsPC-1,2.6 nM
same,IC50,"p-ERK in AGS cells; Homo sapiens, AGS, 2 h",4.2 nM
same,"Tumor volume (mm^3, Mean ± SD) Day 0",[1],469 mm^3
same,TGI(%) Day 14,[1],161.42%
same,ΔT/ΔC(%) Day 14,[1],18.73%
same,"Tumor volume (mm^3, Mean ± SD) Day 21",[1],180 mm^3
same,IC50,"GP2D; Homo sapiens, GP2d, 72 h",0.1 nM
